Literature values, collected in patent EP4570798A1, “AROMATIC HETEROCYCLIC CYCLOHEXYL AMINOALKYL PIPERIDINE DERIVATIVE, PREPARATION METHOD AND USE THEREOF” (Jiangsu NHWA Pharmaceutical Co., Ltd, priority 2022, dated 2024).

Key:
D2 = D2 (Homo sapiens, UniProt P14416); settings: literature value; cited from earlier work
D3 = D3 (Homo sapiens, UniProt P35462); settings: literature value; cited from earlier work
5-HT1A = target: T1, 5-HT1A (Homo sapiens, UniProt P08908); settings: literature value; cited from earlier work
T1 sequence (P08908 1-422): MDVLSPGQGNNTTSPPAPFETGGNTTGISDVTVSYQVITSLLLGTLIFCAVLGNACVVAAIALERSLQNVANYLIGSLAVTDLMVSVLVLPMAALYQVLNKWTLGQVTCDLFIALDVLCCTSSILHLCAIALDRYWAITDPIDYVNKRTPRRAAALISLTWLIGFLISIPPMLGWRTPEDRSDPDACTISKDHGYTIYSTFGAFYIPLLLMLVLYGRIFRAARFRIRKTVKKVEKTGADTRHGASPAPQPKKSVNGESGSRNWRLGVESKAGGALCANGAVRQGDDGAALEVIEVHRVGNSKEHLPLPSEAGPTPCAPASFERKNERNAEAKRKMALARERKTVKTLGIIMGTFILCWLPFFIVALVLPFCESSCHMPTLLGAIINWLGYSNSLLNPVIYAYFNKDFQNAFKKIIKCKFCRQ

5HT1A/1B = 5HT1A/1B agonist, literature value; cited from earlier work

Chain of D3 (P35462 whole entry): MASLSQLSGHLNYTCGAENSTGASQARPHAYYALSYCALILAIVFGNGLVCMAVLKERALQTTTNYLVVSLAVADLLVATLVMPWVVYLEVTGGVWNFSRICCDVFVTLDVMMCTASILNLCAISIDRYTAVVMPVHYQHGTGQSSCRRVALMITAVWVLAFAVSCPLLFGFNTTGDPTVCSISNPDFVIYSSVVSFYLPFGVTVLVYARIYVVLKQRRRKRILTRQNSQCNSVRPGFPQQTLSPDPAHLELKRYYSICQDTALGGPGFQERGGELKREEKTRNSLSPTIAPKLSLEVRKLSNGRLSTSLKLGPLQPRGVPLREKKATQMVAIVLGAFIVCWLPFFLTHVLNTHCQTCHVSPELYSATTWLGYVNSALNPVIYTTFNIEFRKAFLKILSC
Chain of D2 (P14416 whole entry): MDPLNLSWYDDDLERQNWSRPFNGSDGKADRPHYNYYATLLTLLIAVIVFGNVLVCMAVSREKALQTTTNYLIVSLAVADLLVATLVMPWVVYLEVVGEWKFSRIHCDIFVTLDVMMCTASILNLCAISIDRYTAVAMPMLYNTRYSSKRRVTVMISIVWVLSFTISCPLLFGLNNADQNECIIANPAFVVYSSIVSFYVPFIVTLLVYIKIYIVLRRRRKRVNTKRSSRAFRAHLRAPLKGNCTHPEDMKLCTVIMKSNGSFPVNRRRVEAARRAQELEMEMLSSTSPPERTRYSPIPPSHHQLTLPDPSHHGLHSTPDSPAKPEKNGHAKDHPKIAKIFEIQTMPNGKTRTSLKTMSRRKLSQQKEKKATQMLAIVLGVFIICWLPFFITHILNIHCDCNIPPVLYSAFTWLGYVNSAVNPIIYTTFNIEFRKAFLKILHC

Structure (SMILES) | EC50 (D2) [nM] | IC50 (D3) [nM] | EC50 (5-HT1A) [nM] | EC50 (5HT1A/1B) [nM] | EC50 (D3) [nM]
O=c1[nH]c2cccc(N3CCN(Cc4cccc(-c5ccccc5)c4)CC3)c2o1 [Bifeprunox] | 39.8 | 15.2 | 47.8 | – | –
c1cc2c(c(N3CCNCC3)c1)OCCO2 [Eltoprazine] | – | – | – | 148 | –
CN1CCN(c2cccc3[nH]c(=O)oc23)CC1 [Pardoprunox] | 10 | – | 500 | – | 0.6
